From PMC6751662, “Pharmacological and functional similarities of the human neuropeptide Y system in C. elegans challenges phylogenetic views on the FLP/NPR system” (Cell Communication and Signaling : CCS, 2019)

Key:
[1] = target: T1, NPFF1R (Homo sapiens, UniProt Q9GZQ6); assay: IP accumulation assay, chimeric GαΔ6qi4myr, NPFF1R; format: cell-based; conditions: chimeric GαΔ6qi4myr co-transfected, transiently transfected HEK293 cells, mean of at least three independent experiments
T1 construct: expressed in transfected cells; host or cells: HEK293, transient
T1 sequence (Q9GZQ6 whole entry): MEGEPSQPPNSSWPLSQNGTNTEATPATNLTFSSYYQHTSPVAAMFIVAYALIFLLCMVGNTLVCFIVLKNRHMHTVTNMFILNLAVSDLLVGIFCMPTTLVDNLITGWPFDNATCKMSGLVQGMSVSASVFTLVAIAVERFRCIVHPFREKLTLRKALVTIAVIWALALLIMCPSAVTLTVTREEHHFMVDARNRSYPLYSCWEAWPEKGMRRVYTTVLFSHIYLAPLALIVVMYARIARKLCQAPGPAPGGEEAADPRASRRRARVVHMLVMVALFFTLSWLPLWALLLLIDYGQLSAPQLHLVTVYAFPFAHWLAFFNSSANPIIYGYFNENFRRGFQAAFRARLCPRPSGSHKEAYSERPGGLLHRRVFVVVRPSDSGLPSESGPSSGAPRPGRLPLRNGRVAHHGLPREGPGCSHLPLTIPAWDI
Method: (§1) For measuring IP accumulation, HEK293 cells grown to 70–80% confluency in 6-well plates were transiently co-transfected using Metafectene Pro (2.5 μl/μg DNA; Biontex) with plasmids containing receptor and/or mock (empty pcDNA3.1) (for endogenous Gq-coupling) using 4 μg total DNA in a ratio of 3:1 following the manufacturer’s instructions. For testing Gα16- and GαΔ6qi4myr-coupling, plasmids encoding the corresponding Gα protein were co-transfected instead of mock. Gα16 is naturally promiscuous and stimulates the phospholipase C (PLC) pathway leading to IP production, while the exchange of the C-terminal four amino acids of Gαq for the corresponding residues of Gαi1 in the chimeric GαΔ6qi4myr confers the ability to couple to Gi/o protein-preferring receptors but still stimulate PLC, thus specifically redirecting downstream cellular signaling. 16 h post transfection, the cells were seeded into white 384-well plates at a density of 20,000 cells/well. Media was removed 24 h later and the cells were incubated with the indicated concentration of peptides for 1 h in HBSS + 20 mM LiCl. IP accumulation was measured with the HTRF-based IP-One Gq kit (Cisbio) on a microplate reader (Tecan Spark).
(§2) For in vitro activation, data is presented as mean ± SEM of at least three independent experiments conducted in technical triplicate. […] For the C. elegans NPRs, we considered the strongest response elicited by any of the peptides downstream of a particular receptor as the receptor’s maximal signal. This may or may not be the biological maximum that can be reached by the ‘true’ endogenous agonist. For the human receptors, the response to the established endogenous agonist reflected the maximal signal.

[2] = target: T2, NPFF2R (Homo sapiens, UniProt Q9Y5X5); assay: IP accumulation assay, chimeric GαΔ6qi4myr, NPFF2R; format: cell-based; conditions: chimeric GαΔ6qi4myr co-transfected, transiently transfected HEK293 cells, mean of at least three independent experiments
T2 construct: expressed in transfected cells; host or cells: HEK293, transient
T2 sequence (Q9Y5X5 103-522): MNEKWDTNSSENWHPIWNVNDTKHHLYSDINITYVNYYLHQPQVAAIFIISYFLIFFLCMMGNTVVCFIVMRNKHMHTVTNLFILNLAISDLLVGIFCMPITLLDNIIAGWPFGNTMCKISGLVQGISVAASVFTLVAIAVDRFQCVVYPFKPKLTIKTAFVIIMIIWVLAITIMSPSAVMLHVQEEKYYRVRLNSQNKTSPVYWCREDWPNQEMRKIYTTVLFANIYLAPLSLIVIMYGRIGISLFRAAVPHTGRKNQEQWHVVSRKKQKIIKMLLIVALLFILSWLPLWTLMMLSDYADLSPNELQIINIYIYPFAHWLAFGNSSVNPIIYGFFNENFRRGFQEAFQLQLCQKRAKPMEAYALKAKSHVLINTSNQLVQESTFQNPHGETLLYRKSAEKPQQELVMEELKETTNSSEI
Method: as §1, §2

[3] = target: T3, QRFPR (Homo sapiens, UniProt Q96P65); assay: IP accumulation assay, endogenous Gαq coupling, QRFPR; format: cell-based; conditions: transiently transfected HEK293 cells, mean of at least three independent experiments
T3 construct: expressed in transfected cells; host or cells: HEK293, transient
T3 sequence (Q96P65 1-431): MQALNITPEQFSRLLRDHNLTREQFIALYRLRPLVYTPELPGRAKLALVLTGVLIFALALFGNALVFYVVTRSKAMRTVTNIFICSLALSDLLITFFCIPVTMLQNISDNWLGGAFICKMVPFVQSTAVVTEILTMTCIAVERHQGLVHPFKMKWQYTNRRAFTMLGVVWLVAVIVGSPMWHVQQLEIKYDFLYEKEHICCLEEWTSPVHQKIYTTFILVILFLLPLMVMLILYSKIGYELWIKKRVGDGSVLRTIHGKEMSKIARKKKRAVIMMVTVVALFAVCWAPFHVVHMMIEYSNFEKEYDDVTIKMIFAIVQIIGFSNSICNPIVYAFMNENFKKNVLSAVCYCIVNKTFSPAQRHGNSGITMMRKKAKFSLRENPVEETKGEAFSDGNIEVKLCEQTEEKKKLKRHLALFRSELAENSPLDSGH
Method: as §1, §2

[4] = tested on: NPR-6; assay: IP accumulation assay, chimeric GαΔ6qi4myr, NPR-6; format: cell-based, C. elegans; conditions: 1 h, HBSS + 20 mM LiCl, HEK293 receptor + GαΔ6qi4myr, HTRF IP-One
Method: as §1, §2

[5] = target: T4, Y2R (Homo sapiens, UniProt P49146); assay: cAMP reporter gene assay, Gi/o, Y2R; format: cell-based; conditions: inhibition of cAMP production induced by 1 µM forskolin (set to 1.00), transiently transfected HEK293 cells, mean of at least three independent experiments
T4 construct: expressed in transfected cells; host or cells: HEK293, transient
T4 sequence (P49146 1-381): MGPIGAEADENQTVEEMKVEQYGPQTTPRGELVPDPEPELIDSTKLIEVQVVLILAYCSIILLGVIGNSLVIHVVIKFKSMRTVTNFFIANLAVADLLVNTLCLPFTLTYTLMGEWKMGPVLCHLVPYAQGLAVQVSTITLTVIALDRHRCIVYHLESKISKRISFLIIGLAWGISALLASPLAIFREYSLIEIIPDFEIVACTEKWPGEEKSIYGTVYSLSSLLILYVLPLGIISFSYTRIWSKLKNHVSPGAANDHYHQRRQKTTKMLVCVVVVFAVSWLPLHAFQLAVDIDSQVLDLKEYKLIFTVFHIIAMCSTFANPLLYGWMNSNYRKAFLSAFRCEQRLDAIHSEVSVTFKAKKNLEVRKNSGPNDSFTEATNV
Method: (§3) Activation of Gs and Gi/o was assessed with a cAMP reporter gene assay. HEK293 cells grown to 70–80% confluency in 6-well plates were transiently co-transfected with vectors encoding the receptor and the cAMP reporter gene plasmid pGL4.29 [luc2P/CRE/Hygro] (Promega; 4 μg total, 1:1 ratio) using Metafectene Pro (3 μl/μg DNA; Biontex) following the manufacturer’s instructions. 16 h post transfection, the cells were seeded into white 384-well plates at a density of 20,000 cells/well. On the next day, the medium was removed and the cells were stimulated with 20 μl of peptide solution (or forskolin as positive control) in serum-free DMEM for 4 h. For measuring Gi/o activity, the peptide solutions additionally contained 1 μM forskolin to elevate cellular cAMP levels. After incubation, the luciferase substrate OneGlo in lysis buffer (Promega) was added and the luminescence was measured in a microplate reader Tecan Spark (Tecan). Data were analyzed with GraphPad Prism 5.03 and are shown as fold of basal or fold of forskolin in case of Gαi/o activity.
as §2

[6] = target: T5, Y5R (Homo sapiens, UniProt Q15761); assay: cAMP reporter gene assay, Gi/o, Y5R; format: cell-based; conditions: inhibition of cAMP production induced by 1 µM forskolin (set to 1.00), transiently transfected HEK293 cells, mean of at least three independent experiments
T5 construct: expressed in transfected cells; host or cells: HEK293, transient
T5 sequence (Q15761 1-445): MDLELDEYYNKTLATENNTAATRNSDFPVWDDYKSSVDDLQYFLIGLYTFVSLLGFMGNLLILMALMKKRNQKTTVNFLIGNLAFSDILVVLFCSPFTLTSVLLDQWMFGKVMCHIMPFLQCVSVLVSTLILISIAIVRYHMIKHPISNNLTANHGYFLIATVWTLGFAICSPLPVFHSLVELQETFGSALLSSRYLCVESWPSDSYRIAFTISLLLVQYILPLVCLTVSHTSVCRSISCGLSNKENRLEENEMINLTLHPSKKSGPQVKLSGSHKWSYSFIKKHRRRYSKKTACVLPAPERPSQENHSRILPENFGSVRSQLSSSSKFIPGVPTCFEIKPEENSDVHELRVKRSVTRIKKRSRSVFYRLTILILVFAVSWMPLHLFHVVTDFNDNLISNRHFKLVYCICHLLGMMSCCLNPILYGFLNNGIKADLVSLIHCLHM
Method: as §3, §2

[7] = target: T2, NPFF2R; assay: cAMP reporter gene assay, Gi/o, NPFF2R; format: cell-based; conditions: inhibition of cAMP production induced by 1 µM forskolin (set to 1.00), transiently transfected HEK293 cells, mean of at least three independent experiments
Method: as §3, §2

[8] = 0.1 µM peptide (Table S8), mean of >=3 independent experiments
[9] = 10 µM peptide, mean of >=3 independent experiments (Tables S5 and S8)

IP accumulation, x-fold of basal (mean), NPFF1R ([1]; 0.1 µM peptide)	IP accumulation, x-fold of basal (mean), NPFF1R ([1]; 10 µM peptide)	IP accumulation, x-fold of basal (mean), NPFF2R ([2]; 0.1 µM peptide)	IP accumulation, x-fold of basal (mean), NPFF2R ([2]; 10 µM peptide)	IP accumulation, x-fold of basal (mean), QRFPR# ([3]; 0.1 µM peptide)	IP accumulation, x-fold of basal (mean), QRFPR# ([3]; 10 µM peptide)	Gi (Gs) [x-fold of forskolin], Y2R, mean ([5]; 0.1 µM peptide)	Gi (Gs) [x-fold of forskolin], Y2R, mean ([5]; 10 µM peptide)	Gi (Gs) [x-fold of forskolin], Y5R, mean ([6]; 0.1 µM peptide)	Gi (Gs) [x-fold of forskolin], Y5R, mean ([6]; 10 µM peptide)	Gi (Gs) [x-fold of forskolin], NPFF2R, mean ([7]; 0.1 µM peptide)	Gi (Gs) [x-fold of forskolin], NPFF2R, mean ([7]; 10 µM peptide)	Substance	IP assay endog. Gαq + GαΔ6qi4myr, NPR-6 ([4]; 0.1 nM peptide (Table S5), mean of >=3 independent experiments)	IP accumulation with GαΔ6qi4myr, NPR-6 [4, 8]	IP accumulation with GαΔ6qi4myr, NPR-6 [4, 9]
1.04 x-fold of basal	2.56 x-fold of basal	1.85 x-fold of basal	2.58 x-fold of basal	22.77 x-fold of basal	24.26 x-fold of basal							TSGPLGNLAEELNGYSRKKGGFSFRF-NH2 [QRFP26, human pyroglutamylated RFamide peptide, 26 residues, reference compound]			
0.94 x-fold of basal	2.37 x-fold of basal	1.75 x-fold of basal	2.32 x-fold of basal	0.59 x-fold of basal	0.63 x-fold of basal							TPDINPAWYASRGIRPVGRF-NH2 [PrRP20, human prolactin-releasing peptide, 20 residues, reference compound]			
1.48 x-fold of basal	4.07 x-fold of basal	0.88 x-fold of basal	2.44 x-fold of basal	0.95 x-fold of basal	1.21 x-fold of basal							APKPKFIRF-NH2 [FLP-5-1, C. elegans FMRFamide-like peptide, C-terminally amidated, synthesized by SPPS]	0.96 x-fold of basal	0.96 x-fold of basal	0.98 x-fold of basal
						0.88 x-fold of forskolin	0.81 x-fold of forskolin	0.84 x-fold of forskolin	0.87 x-fold of forskolin	0.88 x-fold of forskolin	0.60 x-fold of forskolin	GLGPRPLAF-NH2 [[R8A]FLP-21, R8A control peptide of FLP-21, penultimate arginine exchanged for an alanine]			
2.11 x-fold of basal	3.54 x-fold of basal	1.10 x-fold of basal	2.86 x-fold of basal	1.07 x-fold of basal	0.92 x-fold of basal							AGSDPNFLRF-NH2 [FLP-1-2, C. elegans FMRFamide-like peptide, C-terminally amidated, synthesized by SPPS]		1.14 x-fold of basal	5.19 x-fold of basal
1.86 x-fold of basal	3.68 x-fold of basal	1.07 x-fold of basal	2.36 x-fold of basal	1.26 x-fold of basal	0.98 x-fold of basal							ASPSFIRF-NH2 [FLP-4-2, C. elegans FMRFamide-like peptide, C-terminally amidated, synthesized by SPPS]		0.96 x-fold of basal	1.19 x-fold of basal
0.75 x-fold of basal	0.75 x-fold of basal	0.95 x-fold of basal	1.44 x-fold of basal	0.75 x-fold of basal	0.75 x-fold of basal							APLEPVYPGDNATPEQMAQYAADLRRYINMLTRPRY-NH2 [PP, human pancreatic polypeptide, reference compound]			
1.29 x-fold of basal	3.42 x-fold of basal	1.58 x-fold of basal	3.28 x-fold of basal	1.42 x-fold of basal	1.52 x-fold of basal							NPENDTPFGTMRF-NH2 [FLP-3-4, C. elegans FMRFamide-like peptide, C-terminally amidated, synthesized by SPPS]		1.04 x-fold of basal	5.43 x-fold of basal

Substance	IP accumulation, x-fold of basal (mean), NPFF1R ([1]; 0.1 µM peptide)	IP accumulation, x-fold of basal (mean), NPFF1R ([1]; 10 µM peptide)	IP accumulation, x-fold of basal (mean), NPFF2R ([2]; 0.1 µM peptide)	IP accumulation, x-fold of basal (mean), NPFF2R ([2]; 10 µM peptide)	IP accumulation, x-fold of basal (mean), QRFPR# ([3]; 0.1 µM peptide)	IP accumulation, x-fold of basal (mean), QRFPR# ([3]; 10 µM peptide)	Gi (Gs) [x-fold of forskolin], Y2R, mean ([5]; 0.1 µM peptide)	Gi (Gs) [x-fold of forskolin], Y2R, mean ([5]; 10 µM peptide)	Gi (Gs) [x-fold of forskolin], Y5R, mean ([6]; 0.1 µM peptide)	Gi (Gs) [x-fold of forskolin], Y5R, mean ([6]; 10 µM peptide)	Gi (Gs) [x-fold of forskolin], NPFF2R, mean ([7]; 0.1 µM peptide)	Gi (Gs) [x-fold of forskolin], NPFF2R, mean ([7]; 10 µM peptide)	IP assay endog. Gαq + GαΔ6qi4myr, NPR-6 ([4]; 0.1 nM peptide (Table S5), mean of >=3 independent experiments)	IP accumulation with GαΔ6qi4myr, NPR-6 [4, 8]	IP accumulation with GαΔ6qi4myr, NPR-6 [4, 9]
PrRP31 [reference compound]	0.87 x-fold of basal	2.26 x-fold of basal	1.83 x-fold of basal	2.28 x-fold of basal	0.58 x-fold of basal	0.59 x-fold of basal									
